{"source": "patent US20240033223A1", "about": "(SICHUAN CREDIT PHARMACEUTICAL CO., LTD, priority 2020, published 2024)", "origin": "cited, not measured here", "settings": "aqueous preparation (U.S. Pat. No. 4,925,860)"}
{"smiles": "O=C1NC(=O)C(c2ccccc2)(c2ccccc2)N1", "note": "[Impurity C, Phenytoin]", "values": [{"measurement": "Solubility in water", "value": "water-insoluble"}]}
